Here are results for two substances from patent publication EP0617288B1, “Long emission wavelength chemiluminescent compounds and their use in test assays” (Novartis AG, priority 1993, dated 1994).

Series [1] in a line: Light emission spectra by Fast Spectral Scanning System (FSSS). It counts as physicochemical. The note with it: for emission spectrum peak: figure legends FIGS. 2A-2E, 3A-3J; for Emission Max: in 0.5 ml acetonitrile, Flashing Reagent #1 and #2, maximum could vary by 0-4 nm between determinations; for Range: spectral region with signal intensity of above 5% of peak height. As to the method: The light emission spectra of LBAC's and the reference acridinium esters were determined by a Fast Spectral Scanning System (FSSS) of Photo Research (a division of Kollmorgen Corp) of Burbank, CA, U.S.A. The experiment was carried out in a dark room. Each sample was dissolved in HPLC grade acetonitrile at the concentration of 1 mg/ml or higher and diluted with the same solvent to obtain the sample solution in the concentration specified. A typical determination utilized 10 to 100 ug of each compound, with the exception of the angular benz[a]acridinium ester (2 mg), separately or mixed together in 0.5 ml acetonitrile contained in 13 x 100 mm borosilicate test tube. The tube was placed on a tube rack raised to a proper height. The FSSS optical head was placed in front of the tube at close distance and with its lens focused on the liquid in the tube. The sample solution was first treated with 0.35 ml of the Flashing Reagent #1 (Ciba Corning Diagnostics) containing 0.1 N HNO3 and 0.1% H2O2. […] The light which was generated instantaneously following the addition of the Reagent #2 was recorded by FSSS for 4 seconds except for 2-MeO-LEAE-Imidate which was recorded for 30 seconds starting from split second before the Reagent #2 was added.
Recorded emission spectra are shown in FIGS. 2A-2E, 3A-3J, and 4A-4D. FIGS. 2A-2E and 3A-3J show individual emission spectra of chemiluminescent compounds including an acridinium ring system and compounds including a benzacridinium ring system. […] The major portions of the original constituting spectra which remained unchanged were indeed non-overlapping. These important physical characteristics fulfill the prerequisite for two or more subclasses of chemiluminescent compounds to be utilized in test assays for detecting and/or quantitating at least two substances in a test sample, and particularly to multianalyte clinical diagnostic assays.

A short description of series [2]: Kinetic study on light emission (time course up to 10 seconds). It is filed as physicochemical. The note with it: normalized to 10 seconds. As to the method: A time course study over a period of up to 10 seconds was conducted to determine these percentages, by flashing the compounds and normalizing all the signals collected for different lengths of time to that of 10 seconds.

With “(4-Benzyloxycarbonyl-2,6-diisopropyl)phenyl 10-Methyl-acridinium-9-carboxylate Fluorosulfonate [DIPAE-Bz, reference compound]”, the emission spectrum peak result in series [1] was “≈ 428 nm”. Also, in series [1], the “Emission Max” value was found to be 426 nm. In addition, the Range in series [1] is 405-520 nm. For the same substance, the “Percent signal released over different lengths of time” value in series [2] (0.5 s) came out at 14%; in series [2] (1.0 s), 64%; in series [2] (2.0 s) it was 89%; in series [2] (4.0 s) it was 97%; in series [2] (6.0 s) it was 98%; in series [2] (10.0 s), 100%.
As to “[2,6-Dimethyl-4-(2-methoxyiminoethyl)]phenyl 2-Methoxy-5-methyl-benz[b]acridinium-12-carboxylate Dichloride [2-MeO-LEAE-Imidate]”, the emission spectrum peak entry in series [1] is listed as “≈ 550 nm”. Also, in series [1], the “Emission Max” value came out at 550 nm. Besides, the Range in series [1] was 500-710 nm. Besides, the “Percent signal released over different lengths of time” value was determined as 6% in series [2] (0.5 s); 23% in series [2] (1.0 s); 40% in series [2] (2.0 s); 59% in series [2] (4.0 s); 76% in series [2] (6.0 s); 100% in series [2] (10.0 s).
